Source: ChEMBL document CHEMBL3507680, “University of Dundee, Gates Library screen for HepG2 cell viability”

Test: Human HepG2 cell viability assay in 384 well format
Assay type: toxicity, cell-based
Set-up: dose 125 nL, time 70.5 hour; cytotoxicity at 70.5 h: concentration not given beside the values
Details: HepG2 cells, read-out: Inhibition

| Structure (SMILES) | cytotoxicity at 70.5 h [%] |
| --- | --- |
| CN(C)CCn1c([C@H]2CCCO2)cc2cccnc21 | -2.03 |
| Cc1ccc2c(c1)CN(C(=O)c1cccs1)C(CN(C)C)CO2 (stereo not given) | -2.45 |
| OC1(Cn2ccc3ncccc32)CCN(Cc2cccnc2)CC1 | -2.24 |
| CCn1ncc(CN2CCC(O)(Cn3ccc4ncccc43)CC2)c1C | -1.63 |
| CC(C)C(=O)NC1CCCc2nc(N3CCOCC3)ncc21 (stereo not given) | -0.959 |
| O=C(NC1CCCc2nc(N3CCOCC3)ncc21)C1CCCCC1 (stereo not given) | 13.8 |
| Cc1ccc(=O)n(CC2(O)CCN(Cc3ccoc3)CC2)n1 | -3.06 |
| O=C(NC1CCCc2nc(N3CCCCC3)ncc21)C1CCCC1 (stereo not given) | -4.53 |
| Cc1ccccc1-c1cc(CC2(C(=O)O)CCOCC2)on1 | -6.86 |
| O=C(c1cccs1)N1CCCC(c2cc(C(F)F)n3ncnc3n2)C1 (stereo not given) | 0.957 |
| O=C(O)C1(Cc2cc(-c3ccc(F)cc3)no2)CCOCC1 | 8.42 |
| OCC1CCCN(Cc2c(C3CCCC3)[nH]c3ncccc23)C1 (stereo not given) | 13.9 |
| COc1ccccc1CNc1ncc(-c2cc(C)no2)c(C(C)C)n1 | -9.02 |
| CC(=O)NC1CCN(C(=O)Nc2ccc(SC(F)F)cc2)CC1 | -4.73 |
| O=C(Nc1ccc(-c2csnn2)cc1)N1CCC(N2CCCC2)C1 (stereo not given) | -14.2 |
| CCCC(C)(C)NC(=O)CCN1CCOC1=O | 0.72 |
| CC(C)COC(=O)N1CCN(C(=O)c2ccc3nccn3c2)CC1 | 30.9 |
| COc1cccc(CC(C)NC(=O)c2ccc(CNC(C)=O)cc2)c1 (stereo not given) | -2.82 |
| CC(C)Cc1cc(C(=O)N2CCCN(c3ncccn3)CC2)[nH]n1 | -1.63 |
| CC(C)CCC(=O)N1CCN(C(=O)c2ccc3nccn3c2)CC1 | 15.2 |

| Structure (SMILES) | cytotoxicity at 70.5 h [%] |
| --- | --- |
| Cc1nccn1-c1ccc(CNS(=O)(=O)N2CCCC(C)C2)cn1 (stereo not given) | -4.59 |
| Cc1nccn1-c1ccc(CNS(=O)(=O)N2CCC(C)CC2)cn1 | 25.9 |
| CC1CN(C(=O)c2nccnc2N)c2ccc(F)cc2O1 (stereo not given) | 1.2 |
| Cc1ccc2cccc(C(=O)NCC3CCN(C(C)C)C3)c2n1 (stereo not given) | 12 |
| COc1cccc(CC(C)NC(=O)NCc2ccn(C)c2)c1 (stereo not given) | 0.709 |
| O=C(CCc1ccccn1)NC1CCN(c2cccc(Cl)c2)C1 (stereo not given) | 39.6 |
| CCOCC1CCN(C(=O)Nc2ccc(-c3csnn3)cc2)C1 (stereo not given) | -11.9 |
| Cc1ccc(CC(=O)NC2CCN(c3cccc(Cl)c3)C2)cn1 (stereo not given) | 22.6 |
| O=C(c1cnc(NCc2sccc2Br)c(Cl)c1)N1CCCCC1 | -9.35 |
| CCNC(=O)NC(C)(C)C(=O)NCCc1csc2ccccc12 | 2.01 |
| COc1cccc(CC(C)NC(=O)NCCc2cccnc2)c1 (stereo not given) | -8.55 |
| O=C(Cc1cccc(O)c1)NC1CCN(c2cccc(Cl)c2)C1 (stereo not given) | -3.87 |
| O=C(NCCN1CCCCCC1)c1cccc(Cl)c1Cl | 1.51 |
| Cc1nc(CNCc2ccc(N3CCN(C)CC3)nc2)cs1 | 16.7 |
| COc1ccc(CNC(=O)c2ccc(=O)n(C)c2)cc1C | -9.61 |
| CC(C)OCCC1CCCCN1S(N)(=O)=O (stereo not given) | 10.9 |
| COc1ccc(Cl)cc1CS(=O)(=O)CC(=O)NC(C)CCC(C)C (stereo not given) | -11.8 |
| Cc1ccc(N2N=C(C(=O)N(C)Cc3ccco3)NCC2=O)cc1 | 4.87 |
| COc1ccc(C(O)CNC(=O)Cn2ccc(=O)n(C)c2=O)cc1 (stereo not given) | -5.99 |
| CCN(C(=O)C1=NN(c2ccccc2)C(=O)CN1)c1ccccc1 | -2.62 |

| Structure (SMILES) | cytotoxicity at 70.5 h [%] |
| --- | --- |
| CNC(=O)C1CCCCN1C(=O)c1sc(-c2ccc(C)o2)nc1C (stereo not given) | 3.27 |
| CNC(=O)C1CCCCN1C(=O)c1csc(-c2ccccc2)n1 (stereo not given) | -9.17 |
| NC(=O)C(NCCc1ccc(Cl)s1)c1ccccc1 (stereo not given) | -11.4 |
| Cc1nc(-c2ccncc2)nc(N(C)CCc2ccncc2)c1C | 4.43 |
| O=C(CCNC(=O)C1=Cc2ccccc2OC1)NCc1ccncc1 | -2.01 |
| CS(=O)(=O)CCC(=O)N1CCC(c2cccc(F)c2)C1 (stereo not given) | 5.28 |
| CCOCCNCC1CCN(CCO)CC1 | -3.07 |
| COc1nc(N2CCN(C(C)=O)CC2)ncc1Br | -3.12 |
| Cc1nonc1NC(=O)CCn1cc(Br)ccc1=O | 6.64 |
| CCOc1cc(CNc2cc(-c3nc(C)no3)ccn2)ccc1OC | 1.28 |
| CNC(=O)Cc1noc(-c2cc3c(s2)CCCCCC3)n1 | -7.62 |
| CNS(=O)(=O)CC(=O)N1CCC(c2ccc(F)c(F)c2)CC1 | 0.695 |
| CCC1COCCN1C(=O)CNC(=O)c1ccsc1 (stereo not given) | -8.2 |
| CC(NS(=O)(=O)N(C)C(C)C)C(=O)N(C)C (stereo not given) | -4.6 |
| CN(CCOCC(F)(F)F)CC1CCN(CCO)CC1 | 16.2 |
| CCCN(CCC)S(=O)(=O)NC(C)C(=O)N(C)C (stereo not given) | -6.45 |
| CC(O)CN1CCC(CNCCOCC(F)(F)F)CC1 (stereo not given) | -7.95 |
| OCCN1CCC(CNCCOCC(F)(F)F)CC1 | 3.98 |
| O=C(COC1CCOC1)N(CC(F)F)c1cccc(Cl)c1 (stereo not given) | -3.13 |
| O=C(CCNCc1cccc(O)c1)N1CCc2sccc2C1 | -7.91 |
